Results from patent US12441710B2, “Substituted piperidino compounds and related methods of treatment” (Alkermes, Inc., priority 2020, dated 2025).

Tests used:
Assay type in all cases: in vitro ADME
MDR1 = assay: MDCK-MDR1 permeability assay; conditions: dog, 3 μM test compound; for efflux ratio at 2 h, 3 μM: Papp (B→A) divided by Papp (A→B), read-out: Efflux ratio (ER); for Papp A→B at 2 h, 3 μM: apical to basolateral, 2 hours at 37 degrees C
Procedure: The bidirectional permeability (Apical to Basal and Basal to Apical directions) of test compounds in MDCK-MDR1 cells were evaluated using MDCK-MDR1 cells seeded in Solvo PreadyPort™ MDCK 96-well plate. Once the plate was received from ReadyCell (Barcelona, Spain), it was treated as per PreadyPort™ user's manual.
For the Apical to Basolateral (A→B) permeability, 80 μL of test compound (3 μM) co-dosed with LY (Lucifer Yellow) (100 μM) in HBSS (Hank's Balanced Salt Solution) assay buffer was added to the donor side (A) while 250 μL of HBSS buffer was added to the receiver side (B). For the Basolateral to Apical (B→A) permeability, 255 μL of test compound (3 μM) in HBSS assay buffer was added to the donor side (B) while 75 μL of HBSS buffer containing LY (100 μM) was added to the receiver side (A).
The plate was placed in an incubator set at 37 degrees C. After 10 minutes of pre-warming, 5 μL aliquot was taken from donor compartment and set aside as the dosing solution. The MDCK-MDR1 incubation plate was placed back into the incubator for 2 hours of incubation at 37 degrees C. After 2 hours of incubation, 25 μL and 5 μL aliquots were removed from the receiver and donor sides, respectively. To the 5 μL aliquots taken from the donor sides (before and after a 2-hour incubation) were diluted with 20 μL of the HBSS buffer. All samples were mixed with 150 μL with acetonitrile containing internal standard (IS) and 200 μL water, and analyzed by LC-MS/MS.
The apparent permeability (Papp) was calculated using the following formula: Papp=dQ/dt×1/A×C0 where: • dQ/dt: amount of translocated material over incubation time (nmol/s) • A: area of insert (0.14 cm^2 for PreadyPort™ MDR1-96) • C0: initial concentration of product applied in apical (A→B) or basal (B→A) compartment (nmol/mL).
The efflux ratio (ER) was measured by dividing the Papp (basolateral to apical direction) by Papp (apical to basolateral direction). It is a general measure of the involvement of active processes. An ER >2 is considered positive for active transport.
The data reported in Table 3 were obtained according to the MDCK-MDR1 permeability assay described above.

human hepatocytes = assay: Hepatocytes stability assay (human hepatocytes); conditions: hepatic clearance divided by liver blood flow, fu assumed unity
Procedure: (§1) In vitro metabolic stability was assessed using cryopreserved hepatocytes from male Sprague Dawley rats and a pool of 50 mixed gender humans (BioIVT, Baltimore, MD). The incubation mixtures were prepared by mixing 250 μL of pre-warmed KHB (Krebs-Henseleit buffer) containing 2×10^6 cell/mL of hepatocytes with 250 μL of pre-warmed KHB buffer containing 2 μM of test compounds in a 48-well plate, giving a final concentration of 1 μM test compound (0.1% DMSO) and 1×10^6 cell/mL of hepatocytes. The reaction mixture was incubated at 37 degrees C. A 50 μL aliquot of incubation mixture was taken at time points (0, 15, 30, 60, 120 and 240 minutes) and transferred into a 96-well plate containing 300 μL ice-cold acetonitrile (containing 30 ng/mL of labetalol and 10 ng/mL of Naltrexone-d3 as internal standards) and immediately placed in ice to terminate the reaction. Samples were centrifuged, and supernatants were transferred into 96-well plates for liquid chromatography with tandem mass spectrometry (LC-MS/MS) analysis to monitor the depletion of the test compound. Data was calculated as percent remaining by assuming zero-minute time point peak area ratio (analyte/IS) as 100% and dividing remaining time point peak area ratios by zero-minute time point peak area ratio. Data were fitted to a first-order decay model to determine half-life. From a plot of log (ln) peak area against time, the slope of the line was determined. Subsequently, half-life (T1/2) and intrinsic clearance (CLint) were calculated using the equations below: • Elimination rate constant (k)=(−slope) • Half-life (T1/2) min=0.693/k • Intrinsic Clearance (CLint) (mL/min/million cells)=(V×0.693)/T1/2 • V=incubation volume mL/number of cells The in vitro T1/2 was converted to in vitro intrinsic clearance (CLint,hep) in units of mL/min/kg using the formula shown below: The in vitro intrinsic clearance (CLint,hep) was scaled to in vivo hepatic clearance (CL,hep) using the following equation which was adapted from a well-stirred model. [formula] where Q is the liver blood flow and fu is the fraction unbound (assumed to be unity in this case). All parameters used in the calculation are shown below (Table 4). The extraction ratio (ER) was calculated by dividing the hepatic clearance of a compound to the liver blood flow. The data reported in Table 5 were obtained according to the human hepatocytes stability assay described above.

[1] = Hepatocytes stability assay (human hepatocytes); conditions: both sexes, cryopreserved hepatocytes, 1 μM test compound, 1×10^6 cell/mL, read-out: CLint (μL/min/million cells)
Procedure: as §1

efflux ratio at 2 h, 3 μM (MDR1)	Papp A→B at 2 h, 3 μM (MDR1) [×10⁻⁶ cm/s]	Extraction Ratio (ER) (human hepatocytes)	hepatocyte CLint at 1 μM [1] [µL/min/1e6 cells]	Structure (SMILES)
24	1.7	0.88	50	CS(=O)(=O)N[C@H]1CCN(c2ccccn2)CC1COC1CCC(c2cccnc2)CC1 (some centres unmarked) [Compound 3]
14	1.2	0.89	57	CS(=O)(=O)N[C@H]1CCN(c2ccccn2)CC1COC1CCC(c2ccncc2)CC1 (some centres unmarked) [Compound 4]
> 7.2	< 0.9	0.88	49	CS(=O)(=O)N[C@H]1CCN(c2ccccn2)CC1COC1CCC(c2ccccc2F)CC1 (some centres unmarked) [Compound 5]
> 4.3	< 1.2	0.85	39	CS(=O)(=O)N[C@H]1CCN(c2ccccn2)CC1COC1CCC(c2ccc(F)cc2)CC1 (some centres unmarked) [Compound 7]
15	1.8	0.82	30	CS(=O)(=O)N[C@H]1CCN(c2ccccn2)CC1COC1CCC(c2ccncn2)CC1 (some centres unmarked) [Compound 8]
25	0.97	0.87	45	CS(=O)(=O)N[C@H]1CCN(c2ccccn2)CC1COC1CCC(c2cnccn2)CC1 (some centres unmarked) [Compound 9]
1.4	5.6	0.92	73	CS(=O)(=O)N[C@H]1CCN(c2ccccn2)CC1COC1CCC(c2ccccc2)CC1 (some centres unmarked) [Compound 10]
11	1.6	0.76	21	CS(=O)(=O)N[C@H]1CCN(c2ccccn2)CC1COC1CCC(c2ncccn2)CC1 (some centres unmarked) [Compound 11]
33	1	0.84	35	CS(=O)(=O)N[C@H]1CCN(c2ccccn2)CC1COC1CCC(c2cncnc2)CC1 (some centres unmarked) [Compound 12]
18	0.67	0.71	16	CS(=O)(=O)N[C@H]1CCN(c2ccccn2)CC1COC1CCC(c2ccnnc2)CC1 (some centres unmarked) [Compound 13]
> 56	< 0.12	0.77	22	CS(=O)(=O)N[C@H]1CCN(c2ccccn2)CC1COC1CCC(c2cccnn2)CC1 (some centres unmarked) [Compound 14]
> 6.9	< 0.33	0.91	64	Cc1ccccc1C1CCC(OCC2CN(c3ccccn3)CC[C@@H]2NS(C)(=O)=O)CC1 (some centres unmarked) [Compound 15]
> 7.9	< 0.9	0.87	43	Cc1cccc(C2CCC(OCC3CN(c4ccccn4)CC[C@@H]3NS(C)(=O)=O)CC2)c1 (some centres unmarked) [Compound 16]
> 6.9	< 0.28	0.83	32	Cc1cccc(C2CCC(OCC3CN(c4ccccn4)CC[C@@H]3NS(C)(=O)=O)CC2)c1C (some centres unmarked) [Compound 17]
> 2.6	< 1.8	0.84	36	Cc1cc(C)cc(C2CCC(OCC3CN(c4ccccn4)CC[C@@H]3NS(C)(=O)=O)CC2)c1 (some centres unmarked) [Compound 18]
14	1.2	0.93	93	CS(=O)(=O)N[C@H]1CCN(c2ncccn2)CC1COC1CCC(c2ccccc2)CC1 (some centres unmarked) [Compound 19]
17	1.1	0.90	60	CS(=O)(=O)N[C@H]1CCN(c2ccncn2)CC1COC1CCC(c2ccccc2)CC1 (some centres unmarked) [Compound 20]
35	0.69	0.94	101	CS(=O)(=O)N[C@H]1CCN(c2cnccn2)CC1COC1CCC(c2ccccc2)CC1 (some centres unmarked) [Compound 21]
23	1.3	0.89	56	CS(=O)(=O)N[C@H]1CCN(c2cccnn2)CC1COC1CCC(c2ccccc2)CC1 (some centres unmarked) [Compound 22]
> 5.4	< 2	0.79	25	CS(=O)(=O)N[C@H]1CCN(c2cccc(F)n2)CC1COC1CCC(c2ccccc2)CC1 (some centres unmarked) [Compound 23]
30	0.28	0.86	42	CS(=O)(=O)N[C@H]1CCN(c2ccc(F)cn2)CC1COC1CCC(c2ccccc2)CC1 (some centres unmarked) [Compound 24]
> 58	< 0.41	0.92	73	CS(=O)(=O)N[C@H]1CCN(c2cc(F)ccn2)CC1COC1CCC(c2ccccc2)CC1 (some centres unmarked) [Compound 25]
37	0.31	0.89	55	CS(=O)(=O)N[C@H]1CCN(c2ncccc2F)CC1COC1CCC(c2ccccc2)CC1 (some centres unmarked) [Compound 26]
3	2.7	0.92	75	CS(=O)(=O)N[C@H]1CCN(c2ncccc2O)CC1COC1CCC(c2ccccc2)CC1 (some centres unmarked) [Compound 27]
> 3.4	< 1.2	0.96	154	CS(=O)(=O)N[C@H]1CCN(c2ncccc2C(F)(F)F)CC1COC1CCC(c2ccccc2)CC1 (some centres unmarked) [Compound 28]
> 17	< 0.42	0.82	30	C[C@@]1(COC2CCC(c3ccccc3)CC2)CN(c2ccccn2)CC[C@@H]1NS(C)(=O)=O (some centres unmarked) [Compound 29]
28	0.7	0.87	45	CS(=O)(=O)N[C@H]1CCN(c2ccccn2)CC1COC1CCC(c2ccccc2O)CC1 (some centres unmarked) [Compound 30]
18	1	0.92	81	CS(=O)(=O)N[C@H]1CCN(c2ccccn2)CC1COC1CCC(c2cccc(O)c2)CC1 (some centres unmarked) [Compound 31]
34	0.41	0.94	110	CS(=O)(=O)N[C@H]1CCN(c2ccccn2)CC1COC1CCC(c2ccc(O)cc2)CC1 (some centres unmarked) [Compound 32]
